Results taken from patent publication US20070249633A1, “1,2,4-Triazolo[1,5a] Pyrimidines and Use Thereof for Controlling Plant-Pathogenic Fungi” (priority 2004, published 2007).

How the values were obtained:
Botrytis cinerea = test: Activity against gray mold on bell pepper leaves caused by Botrytis cinerea (protective spray, seedlings); format: in vivo; conditions: 250 ppm active compound; bell pepper seedlings Neusiedler Ideal Elite; inoculated next day; assessed after 5 days; untreated plants 90% infected
Experimental: The active compounds were prepared as a stock solution comprising 0.25% by weight of active compound in acetone or dimethyl sulfoxide (DMSO). 1% by weight of the emulsifier Uniperol® EL (wetting agent having emulsifying and dispersing action based on ethoxylated alkylphenols) was added to this solution, and the mixture was diluted with water to the desired concentration.
Bell pepper seedlings of the cultivar “Neusiedler Ideal Elite” were, after 2-3 leaves were well developed, sprayed to runoff point with an aqueous suspension having the concentration of active compound stated below. The next day, the treated plants were inoculated with a spore suspension of Botrytis cinerea which contained 1.7×10^6 spores/ml in a 2% strength aqueous biomalt solution. The test plants were then placed in a climatized chamber at 22-24° C. and high atmospheric humidity. After 5 days, the extent of the fungal infection on the leaves could be determined visually in %.

Alternaria solani = test: Activity against early blight of tomato caused by Alternaria solani (protective spray, potted plants); format: in vivo; conditions: 250 ppm active compound; tomato cultivar St. Pierre beef tomato; infected next day; assessed after 5 days; untreated plants 80% infected
Experimental: The active compounds were prepared as a stock solution comprising 0.25% by weight of active compound in acetone or dimethyl sulfoxide (DMSO). 1% by weight of the emulsifier Uniperol® EL (wetting agent having emulsifying and dispersing action based on ethoxylated alkylphenols) was added to this solution, and the mixture was diluted with water to the desired concentration. Leaves of potted plants of the cultivar “St. Pierre beef tomato” were sprayed to run off point with an aqueous suspension having the concentration of active compounds stated below. The next day, the leaves were infected with an aqueous zoospore suspension of Alternaria solani in 2% biomalt solution having a density of 0.17×10^6 spores/ml. The plants were then placed in a water-vapor-saturated chamber at temperatures of between 20 and 22° C. After 5 days, the infection on the leaves of the untreated, but infected control plants had developed to such an extent that the infection could be determined visually in %.

## CCC(C)Cc1c(-c2ccc([N+](=O)[O-])cc2Cl)c(C)nc2ncnn12 (centres unmarked) [example 1, 5-methyl-6-(2chloro-4-nitrophenyl)-7-(2-methylbutyl)-1,2,4-triazolo[1,5-a]pyrimidine]
Botrytis cinerea
  extent of the fungal infection on the leaves determined visually in %: no infection
Alternaria solani
  infection on the leaves determined visually in %: less than 5%
